Converted amounts (≈) assume the structure as drawn. Peptide text beside a SMILES is read from it.
Legend:
Format in all cases: cell-based
[1] = system: Pseudomonas aeruginosa PAO1 (wt strain); settings: for Improvement over Native Sequence (SEQ No. 2) P. aeruginosa PAO1 wt: fold, from MIC in 1/8 MHB
Description: (§1) The minimum inhibitory concentrations (MIC) of the peptides were determined in a double assay of triplicates using a positive control sample (gentamycin) and a negative control sample (0.9% NaCl solution), according to a modified protocol from Wiegand et al. (Wiegand, 2008).
(§2) For this purpose, the peptides were dissolved in water and were diluted in a double dilution series with 1/8 MH (eight-fold diluted Mueller-Hinton-Medium—2.6 g/L, Merck) in sterile 96-well, plates (Greiner Bio-One GmbH) in twelve dilution steps from 128 μg/mL to 62.5 ng/mL. Overnight cultures were adjusted using ⅛ MHB to approximately 1.5×10^7 colony forming units per mL. Of these, 50 μL of peptide solution per well was mixed with 50 μL bacteria solution each to obtain an initial concentration of […] bacteria per well. After 20 hours of incubation at 37′C, the absorption was determined at 595 nm (microplate reader, Wallac Victor3, Perkin Elmer). The minimum inhibitory concentration was identified as the lowest peptide concentration at which no bacterial growth could be detected.
(§3) In the experiment, the antibacterial activity of the peptides according to the invention in relation to the following bacterial strains was analyzed: Pseudomonas aeruginosa PAO1 (wt strain), Pseudomonas aeruginosa DSM 9644, Staphylococcus aureus DSM 1104/ATCC 25923, Staphylococcus aureus ATCC 6247, Escherichia coli UB 1005 (F—, nalA37, metB1) and Escherichia coli ATCC25922.

[2] = system: Staphylococcus aureus DSM 1104/ATCC 25923; settings: for MIC S. aureus ATCC 25923: DSM 1104; for Improvement over Native Sequence (SEQ No. 2) S. aureus ATCC 25923: fold, from MIC in 1/8 MHB
Description: as §1, §2, §3

Escherichia coli UB 1005 = assay: Minimum inhibitory concentration (MIC), broth microdilution; settings: for MIC E. coli UB1005: 1/8 MHB, Table 4; for Improvement over Native Sequence (SEQ No. 2) E. coli UB1005: fold, from MIC in 1/8 MHB
Description: as §1, §2, §3

| SMILES | MIC P. aeruginosa PAO1 wt [1] | Improvement over Native Sequence (SEQ No. 2) P. aeruginosa PAO1 wt [1] | MIC S. aureus ATCC 25923 [2] | Improvement over Native Sequence (SEQ No. 2) S. aureus ATCC 25923 [2] | MIC E. coli UB1005 (Escherichia coli UB 1005) | Improvement over Native Sequence (SEQ No. 2) E. coli UB1005 (Escherichia coli UB 1005) |
| --- | --- | --- | --- | --- | --- | --- |
| CC[C@H](C)[C@H](NC(=O)[C@H](Cc1ccc(O)cc1)NC(=O)[C@@H](NC(=O)[C@@H]1CCCN1C(=O)[C@H](CCCNC(=N)N)NC(=O)[C@H](CC(N)=O)NC(=O)[C@H](CCCNC(=N)N)NC(=O)CN)C(C)C)C(=O)N1CCC[C@H]1C(=O)N[C@@H](CCC(N)=O)C(=O)N1CCC[C@H]1C(=O)N[C@@H](CCCNC(=N)N)C(=O)N1CCC[C@H]1C(=O)N1CCC[C@H]1C(=O)N[C@@H](Cc1c[nH]cn1)C(=O)N1CCC[C@H]1C(=O)N[C@@H](CCCNC(=N)N)C(=O)N[C@@H](CC(C)C)C(N)=O [compound 55] (H-GRNRPVYIPQPRPPHPRL-NH2; N-terminus assumed) | 64 to 128 mg/L | 4-8 | 32 mg/L (≈ 14.9 µM) | 8 | 0.625 mg/L (≈ 0.291 µM) | 8 |
| CC[C@H](C)[C@H](NC(=O)[C@H](Cc1ccc(O)cc1)NC(=O)[C@@H](NC(=O)[C@@H]1CCCN1C(=O)[C@H](CCCNC(=N)N)NC(=O)[C@H](CC(N)=O)NC(=O)[C@H](Cc1c[nH]c2ccccc12)NC(=O)CN)C(C)C)C(=O)N1CCC[C@H]1C(=O)N[C@@H](CCCNC(=N)N)C(=O)N1CCC[C@H]1C(=O)N[C@@H](CCCNC(=N)N)C(=O)N1CCC[C@H]1C(=O)N1CCC[C@H]1C(=O)N[C@@H](Cc1c[nH]cn1)C(=O)N1CCC[C@H]1C(=O)N[C@@H](CCCNC(=N)N)C(=O)N[C@@H](CC(C)C)C(N)=O [compound 63] (H-GWNRPVYIPRPRPPHPRL-NH2; N-terminus assumed) | 16 to 32 mg/L | 16-32 | 16 mg/L (≈ 7.25 µM) | 16 |  | 8 |
| CC[C@H](C)[C@H](NC(=O)[C@H](Cc1ccc(O)cc1)NC(=O)[C@@H](NC(=O)[C@@H]1CCCN1C(=O)[C@H](CCCNC(=N)N)NC(=O)[C@H](CC(N)=O)NC(=O)[C@H](Cc1c[nH]c2ccccc12)NC(=O)CN)C(C)C)C(=O)N1CCC[C@H]1C(=O)N[C@@H](CCC(N)=O)C(=O)N1CCC[C@H]1C(=O)N[C@@H](CCCNC(=N)N)C(=O)N1CCC[C@H]1C(=O)N1CCC[C@H]1C(=O)N[C@@H](Cc1c[nH]cn1)C(=O)N1CCC[C@H]1C(=O)N[C@@H](CCCNC(=N)N)C(=O)N[C@@H](CC(C)C)C(N)=O [compound 54] (H-GWNRPVYIPQPRPPHPRL-NH2; N-terminus assumed) | 64 mg/L (≈ 29.4 µM) | 8 | 63 mg/L (≈ 28.9 µM) | 4 | 1.25 mg/L (≈ 0.574 µM) | 4 |
| CC[C@H](C)[C@H](NC(=O)[C@H](Cc1ccc(O)cc1)NC(=O)[C@@H](NC(=O)[C@H](CS)NC(=O)[C@H](CCCNC(=N)N)NC(=O)[C@H](CC(N)=O)NC(=O)[C@H](CC(N)=O)NC(=O)CN)C(C)C)C(=O)N1CCC[C@H]1C(=O)N[C@@H](CCC(N)=O)C(=O)N1CCC[C@H]1C(=O)N[C@@H](CCCNC(=N)N)C(=O)N1CCC[C@H]1C(=O)N1CCC[C@H]1C(=O)N[C@@H](Cc1c[nH]cn1)C(=O)N1CCC[C@H]1C(=O)N[C@@H](CCCNC(=N)N)C(=O)N[C@@H](CC(C)C)C(N)=O [compound 56] (H-GNNRCVYIPQPRPPHPRL-NH2; N-terminus assumed) | 125 mg/L (≈ 59.1 µM) | 4 | 31 mg/L (≈ 14.7 µM) | 8 | 10 mg/L (≈ 4.73 µM) | 1 |
| CC(C)C[C@H](NC(=O)[C@H](CCCNC(=N)N)NC(=O)[C@@H]1CCCN1C(=O)[C@H](Cc1c[nH]cn1)NC(=O)[C@@H]1CCCN1C(=O)[C@@H]1CCCN1C(=O)[C@H](CCCNC(=N)N)NC(=O)[C@@H]1CCCN1C(=O)[C@H](CCC(N)=O)NC(=O)[C@@H]1CCCN1C(=O)[C@H](CCCNC(=N)N)NC(=O)[C@H](Cc1ccc(O)cc1)NC(=O)[C@@H](NC(=O)[C@@H]1CCCN1C(=O)[C@H](CCCNC(=N)N)NC(=O)[C@H](CC(N)=O)NC(=O)[C@H](CC(N)=O)NC(=O)CN)C(C)C)C(N)=O [compound 58] (H-GNNRPVYRPQPRPPHPRL-NH2; N-terminus assumed) | 64 mg/L (≈ 29.8 µM) | 8 | 63 mg/L (≈ 29.3 µM) | 4 | 0.313 mg/L (≈ 0.146 µM) | 16 |
| CC[C@H](C)[C@H](NC(=O)[C@H](Cc1ccc(O)cc1)NC(=O)[C@@H](NC(=O)[C@@H]1CCCN1C(=O)[C@H](CCCNC(=N)N)NC(=O)[C@H](CC(N)=O)NC(=O)[C@H](CC(N)=O)NC(=O)CN)C(C)C)C(=O)N1CCC[C@H]1C(=O)N[C@@H](CCC(N)=O)C(=O)N1CCC[C@H]1C(=O)N[C@@H](CCCNC(=N)N)C(=O)N1CCC[C@H]1C(=O)N1CCC[C@H]1C(=O)N[C@@H](Cc1c[nH]cn1)C(=O)N[C@@H](CS)C(=O)N[C@@H](CCCNC(=N)N)C(=O)N[C@@H](CC(C)C)C(N)=O [compound 61] (H-GNNRPVYIPQPRPPHCRL-NH2; N-terminus assumed) | 125 mg/L (≈ 59.1 µM) | 4 | 32 mg/L (≈ 15.1 µM) | 8 |  | 0 |
| CC[C@H](C)[C@H](NC(=O)[C@H](Cc1ccc(O)cc1)NC(=O)[C@@H](NC(=O)[C@@H]1CCCN1C(=O)[C@H](CCCNC(=N)N)NC(=O)[C@H](CC(N)=O)NC(=O)[C@H](CC(N)=O)NC(=O)CN)C(C)C)C(=O)N1CCC[C@H]1C(=O)N[C@@H](CCC(N)=O)C(=O)N1CCC[C@H]1C(=O)N[C@@H](CCCNC(=N)N)C(=O)N1CCC[C@H]1C(=O)N1CCC[C@H]1C(=O)N[C@@H](Cc1c[nH]cn1)C(=O)N1CCC[C@H]1C(=O)N[C@@H](CCCNC(=N)N)C(=O)N[C@@H](CCCNC(=N)N)C(N)=O [compound 62] (H-GNNRPVYIPQPRPPHPRR-NH2; N-terminus assumed) | 125 mg/L (≈ 58.1 µM) | 4 | 125 mg/L (≈ 58.1 µM) | 2 | 1.25 to 2.5 mg/L | 2-4 |
| CC[C@H](C)[C@H](NC(=O)[C@H](Cc1ccc(O)cc1)NC(=O)[C@@H](NC(=O)[C@@H]1CCCN1C(=O)[C@H](CC(=O)O)NC(=O)[C@H](CC(N)=O)NC(=O)[C@H](CC(N)=O)NC(=O)CN)C(C)C)C(=O)N1CCC[C@H]1C(=O)N[C@@H](CCC(N)=O)C(=O)N1CCC[C@H]1C(=O)N[C@@H](CCCNC(=N)N)C(=O)N1CCC[C@H]1C(=O)N1CCC[C@H]1C(=O)N[C@@H](Cc1c[nH]cn1)C(=O)N1CCC[C@H]1C(=O)N[C@@H](CCCNC(=N)N)C(=O)N[C@@H](CC(C)C)C(N)=O [compound 91] (H-GNNDPVYIPQPRPPHPRL-NH2; N-terminus assumed) | 121.0 mg/L (≈ 58.6 µM) | 4 | >60.5 mg/L |  | >19.4 mg/L | <0.25 |
| CC[C@H](C)[C@H](NC(=O)[C@H](Cc1ccc(O)cc1)NC(=O)[C@@H](NC(=O)[C@@H]1CCCN1C(=O)[C@H](CCCNC(=N)N)NC(=O)[C@H](CC(N)=O)NC(=O)[C@H](CC(N)=O)NC(=O)CN)C(C)C)C(=O)N1CCC[C@H]1C(=O)N[C@@H](CCC(N)=O)C(=O)N1CCC[C@H]1C(=O)N[C@@H](CCCNC(=N)N)C(=O)N[C@@H](CCCNC(=N)N)C(=O)N1CCC[C@H]1C(=O)N[C@@H](Cc1c[nH]cn1)C(=O)N1CCC[C@H]1C(=O)N[C@@H](CCCNC(=N)N)C(=O)N[C@@H](CC(C)C)C(N)=O [compound 59] (H-GNNRPVYIPQPRRPHPRL-NH2; N-terminus assumed) | 125 mg/L (≈ 57.7 µM) | 4 | 31 mg/L (≈ 14.3 µM) | 8 | 10 mg/L (≈ 4.62 µM) | 1 |
| CC[C@H](C)[C@H](NC(=O)[C@H](Cc1ccc(O)cc1)NC(=O)[C@@H](NC(=O)[C@H](CCCNC(=N)N)NC(=O)[C@H](CCCNC(=N)N)NC(=O)[C@H](CC(N)=O)NC(=O)[C@H](CC(N)=O)NC(=O)CN)C(C)C)C(=O)N1CCC[C@H]1C(=O)N[C@@H](CCC(N)=O)C(=O)N1CCC[C@H]1C(=O)N[C@@H](CCCNC(=N)N)C(=O)N1CCC[C@H]1C(=O)N1CCC[C@H]1C(=O)N[C@@H](Cc1c[nH]cn1)C(=O)N1CCC[C@H]1C(=O)N[C@@H](CCCNC(=N)N)C(=O)N[C@@H](CC(C)C)C(N)=O [compound 57] (H-GNNRRVYIPQPRPPHPRL-NH2; N-terminus assumed) | 64 mg/L (≈ 29.5 µM) | 8 | 32 mg/L (≈ 14.8 µM) | 8 | 5 mg/L (≈ 2.31 µM) | 1 |
